Data set [1] concerns interferon (α) (IFN-α) induction in human peripheral blood mononuclear cells (PBMC). Kind of data set: Cytokine induction in human cells (PBMC): IFN-α secreted into culture media, ELISA. It is filed as cell-based. The conditions noted are these: lowest tested concentration inducing IFN-α over 20 pg/mL, median where more than one experiment, read-out: Minimum Effective Concentration (μM) IFN. The source says: (§1) Cytokine Induction in Human Cells
(§2) An in vitro human blood cell system is used to assess cytokine induction. Activity is based on the measurement of interferon (α) and tumor necrosis factor (α) (IFN-α and TNF-α, respectively) secreted into culture media as described by Testerman et. al. in “Cytokine Induction by the Immunomodulators Imiquimod and S-27609”, Journal of Leukocyte Biology, 58, 365-372 (September, 1995).
(§3) Blood Cell Preparation for Culture
(§4) Whole blood from healthy human donors is collected by venipuncture into vacutainer tubes or syringes containing EDTA. Peripheral blood mononuclear cells (PBMC) are separated from whole blood by density gradient centrifugation using HISTOPAQUE-1077 (Sigma, St. Louis, Mo.) or Ficoll-Paque Plus (Amersham Biosciences Piscataway, N.J.). Blood is diluted 1:1 with Dulbecco's Phosphate Buffered Saline (DPBS) or Hank's Balanced Salts Solution (HBSS). Alternately, whole blood is placed in Accuspin (Sigma) or LeucoSep (Greiner Bio-One, Inc., Longwood, Fla.) centrifuge frit tubes containing density gradient medium. The PBMC layer is collected and washed twice with DPBS or HBSS and re-suspended at 4×10^6 cells/mL in RPMI complete. The PBMC suspension is added to 96 well flat bottom sterile tissue culture plates containing an equal volume of RPMI complete media containing test compound.
(§5) The compounds are solubilized in dimethyl sulfoxide (DMSO). The DMSO concentration should not exceed a final concentration of 1% for addition to the culture wells. The compounds are generally tested at concentrations ranging from 30-0.014 μM. Controls include cell samples with media only, cell samples with DMSO only (no compound), and cell samples with reference compound.
(§6) The solution of test compound is added at 60 μM to the first well containing RPMI complete and serial 3 fold dilutions are made in the wells. The PBMC suspension is then added to the wells in an equal volume, bringing the test compound concentrations to the desired range (usually 30-0.014 μM). The final concentration of PBMC suspension is 2×10^6 cells/mL. The plates are covered with sterile plastic lids, mixed gently and then incubated for 18 to 24 hours at 37° C. in a 5% carbon dioxide atmosphere.
(§7) Following incubation the plates are centrifuged for 10 minutes at 1000 rpm (approximately 200×g) at 4° C. The cell-free culture supernatant is removed and transferred to sterile polypropylene tubes. Samples are maintained at −30 to −70° C. until analysis. The samples are analyzed for IFN-α by ELISA and for TNF-α by IGEN/BioVeris Assay.
(§8) Interferon (α) and Tumor Necrosis Factor (α) Analysis
IFN-α concentration is determined with a human multi-subtype calorimetric sandwich ELISA (Catalog Number 41105) from PBL Biomedical Laboratories, Piscataway, N.J. Results are expressed in pg/mL.
(§9) In total, the data output of the assay consists of concentration values of TNF-α and IFN-α (y-axis) as a function of compound concentration (x-axis).
Analysis of the data has two steps. First, the greater of the mean DMSO (DMSO control wells) or the experimental background (usually 20 pg/mL for IFN-α and 40 pg/mL for TNF-α) is subtracted from each reading. If any negative values result from background subtraction, the reading is reported as “*”, and is noted as not reliably detectable. In subsequent calculations and statistics, “*”, is treated as a zero. Second, all background subtracted values are multiplied by a single adjustment ratio to decrease experiment to experiment variability. The adjustment ratio is the area of the reference compound in the new experiment divided by the expected area of the reference compound based on the past 61 experiments (unadjusted readings). […] The reference compound used is 2-[4-amino-2-ethoxymethyl-6,7,8,9-tetrahydro-α,α-dimethyl-1H-imidazo[4,5-c]quinolin-1-yl]ethanol hydrate (U.S. Pat. No. 5,352,784; Example 91) and the expected area is the sum of the median dose values from the past 61 experiments. […]

The subject of data set [2] is tumor necrosis factor (α) (TNF-α) induction in human peripheral blood mononuclear cells (PBMC). The experiment in a line: Cytokine induction in human cells (PBMC): TNF-α secreted into culture media, ORIGEN M-Series immunoassay. Format: cell-based. The conditions noted are these: median where more than one experiment; for minimal effective concentration: Homo sapiens, PBMC, lowest tested concentration inducing TNF-α over 40 pg/mL, read-out: Minimum Effective Concentration (μM) TNF; for Maximal Response (pg/mL) TNF: maximal response in dose response curve, background-subtracted, reference-adjusted, * = below background of 40 pg/mL.
Excerpt: as §1, §2, §3, §4, §5, §6, §7, §8
The TNF-α concentration is determined by ORIGEN M-Series Immunoassay and read on an IGEN M-8 analyzer from BioVeris Corporation, formerly known as IGEN International, Gaithersburg, Md. The immunoassay uses a human TNF-α capture and detection antibody pair (Catalog Numbers AHC3419 and AHC3712) from Biosource International, Camarillo, Calif. Results are expressed in pg/mL.
as §9
Analysis of the data has two steps. First, the greater of the mean DMSO (DMSO control wells) or the experimental background (usually 20 pg/mL for IFN-α and 40 pg/mL for TNF-α) is subtracted from each reading. If any negative values result from background subtraction, the reading is reported as “*”, and is noted as not reliably detectable. In subsequent calculations and statistics, “*”, is treated as a zero. Second, all background subtracted values are multiplied by a single adjustment ratio to decrease experiment to experiment variability. The adjustment ratio is the area of the reference compound in the new experiment divided by the expected area of the reference compound based on the past 61 experiments (unadjusted readings). […]

Broadly, the melting point is the temperature, or range, at which the solid turns liquid. `CC(C)NC(=O)NCCn1c(CO)nc2c(N)nc3ccccc3c21` [Example 144, N-{2-[4-amino-2-(hydroxymethyl)-1H-imidazo[4,5-c]quinolin-1-yl]ethyl}-N′-isopropylurea] yielded a melting point above 240 °C. The minimal effective concentration in data set [1] worked out at 0.37 µM. In data set [2], the minimal effective concentration worked out at 3.33 µM.
As to `CS(=O)(=O)NCCCCn1c(CO)nc2c(N)nc3ccccc3c21` [Example 147, N-[4-(4-amino-2-hydroxymethyl-1H-imidazo[4,5-c]quinolin-1-yl)butyl]methanesulfonamide], the melting point is 216 to 219 °C. In data set [1], the minimal effective concentration was found to be 0.37 µM. Besides, in data set [2], the minimal effective concentration was above 30 µM and the “Maximal Response (pg/mL) TNF” value is on record as “* (TNF below experimental background of 40 pg/mL.)”.
For `CC(C)NC(=O)NC(C)(C)Cn1c(CO)nc2c(N)nc3ccccc3c21` [Example 142, 1-[2-(4-Amino-2-hydroxymethyl-1H-imidazo[4,5-c]quinolin-1-yl)-1,1-dimethylethyl]-3-(1-methylethyl)urea], in that order: 196 to 199 °C, 1.11 µM, above 30 µM and “* (TNF below experimental background of 40 pg/mL.)”.
Compound `CC(C)(Cn1c(CO)nc2c(N)nc3ccccc3c21)CS(C)(=O)=O` [Example 143, {4-Amino-1-[2,2-dimethyl-3-(methylsulfonyl)propyl]-1H-imidazo[4,5-c]quinolin-2-yl}methanol] returned a melting point of 230 to 232 °C. The minimal effective concentration in data set [1] was found to be 1.11 µM. In addition, in data set [2], the minimal effective concentration is 30 µM.
As for `CC(C)(N)Cn1c(CO)nc2c(N)nc3ccccc3c21` [Example 4, 1-(2-Amino-2-methylpropyl)-2-hydroxymethyl-1H-imidazo[4,5-c]quinolin-4-amine], the melting point lay in the range of 248 to 250 °C. In data set [1], the minimal effective concentration was 0.37 µM. In addition, in data set [2], the minimal effective concentration is 3.33 µM.
`Cc1ccc(S(=O)(=O)NCCCn2c(CCO)nc3c(N)nc4ccccc4c32)cc1` [Example 1, N-{3-[4-Amino-2-(2-hydroxyethyl)-1H-imidazo[4,5-c]quinolin-1-yl]propyl}-4-methylbenzenesulfonamide] had a melting point of 231 to 232 °C. Besides, the minimal effective concentration in data set [1] turned out to be 0.37 µM. Moreover, the minimal effective concentration in data set [2] amounted to 10 µM.
Taken in the same sequence, the figures for `Nc1nc2ccccc2c2c1nc(CCO)n2CCCNC(=O)c1cc2ccccc2cn1` [Example 2, N-{3-[4-Amino-2-(2-hydroxyethyl)-1H-imidazo[4,5-c]quinolin-1-yl]propyl}isoquinoline-3-carboxamide] were 245 to 246 °C, 3.33 µM and 3.33 µM.

The record behind these values is patent US8178677B2, “Hydroxyalkyl substituted imidazoquinolines” (3M Innovative Properties Company, priority 2005, dated 2012).
